Values of other authors as cited in patent US20250049677A1, “Oxa-Macrocyclic Musk as Fragrance Compounds” (Symrise AG, priority 2021, published 2025).

Assays:
[1] = background statement on prior art
[2] = background statement on prior art; remark: listed apart in the source

For `C[C@@H]1CCCCCCCCCCCCC(=O)C1` [Muscone, (R)-3-methylcyclopentadecanone], the Solubility in water [1] is listed as “only very slightly soluble in water” and the Biodegradability [2] is listed as “badly biodegradable”.
